Data from patent US20230194511A1, “Compound Fixing Method, Detection Method, Screening Method, Substrate Used in Same, Compound Fixing Agent, and Fixing Kit” (priority 2020, published 2023).

What was measured:
[1] = system: anti-prostaglandin E2 antibody; assay: Prostaglandin-HSA compound microarray, detection with anti-prostaglandin E2 antibody (Example 5); assay type: binding; conditions: prostaglandin mixed with HSA 0.1 milligram/milliliter, printed on glass slide
Description: The immobilization of prostaglandins, which are bioactive lipids, was verified. In this example, as the prostaglandins, prostaglandins A1, A2, A3, B1, B2, B3, D1, D2, D3, E1, E2, E3, F1a, F2a, F3a, G2, H1, H2, I2, I3, J2, K1, and K2 were used. The prostaglandins were mixed with HSA in the solvents and at the final concentrations shown in the table below to form prostaglandin and HSA complexes. It should be noted that HSA was added to achieve a final concentration of 0.1 milligram/milliliter.
Solutions including each prepared prostaglandin and HSA were spotted and printed on glass slides as microdroplets of approximately 2 to 4 nl by using an ultratrace dispensing system (Micro Diagnostic).
(§1) The compound microarrays printed with the prostaglandins were immersed in ethanol and shaken for 30 seconds at room temperature. Subsequently, the compound microarrays were immersed in ultrapure water and shaken for 30 seconds at 26° C. The shaking by ultrapure water was performed twice. For solution replacement, the compound microarrays were immersed in solution A for protein microarrays only (Fukushima Protein Factory, Fukushima, Japan) and shaken for about five minutes at 26° C.
(§2) The compound microarrays treated as described above were immersed in Blocking One (Nacalai Tesque, Kyoto, Japan) and shaken for one hour at 26° C. Subsequently, the compound microarrays were immersed in solution A for protein microarrays only and shaken for about five minutes at 26° C.
(§3) Using a solution obtained by adding 1/4000 volume of Goat Reference Antibody Mixture I (Fukushima Protein Factory) to the primary antibody diluent for protein microarrays only (Fukushima Protein Factory), an anti-prostaglandin E2 antibody (Ab00484-23.0, Absolute Antibody) was diluted to 1 microgram/milliliter.
(§4) Two milliliters of the solution with the diluted primary antibody were added to a P-DE1 cassette for protein microarrays (Fukushima Protein Factory). […]

[2] = system: anti-amoxicillin antibodies; assay: Compound microarray, detection of immobilized compound with anti-amoxicillin antibodies; assay type: binding, mouse; conditions: concentrations of HSA from 0.5 mM to 0.0005 mM, glass slide
Description: (§5) Further, compounds of bovine serum albumin (BSA) covalently bonded to these 14 compounds in advance (Imgen BioSciences) were printed on glass slides as control samples for comparison. The compounds mixed with HSA were each dissolved in solution A for protein microarrays only (Fukushima Protein Factory) to a concentration of 0.5 mM. Furthermore, HSA was prepared and mixed with the solutions A including the compounds, bringing the final concentrations to 0.1 micrograms/microliter. It should be noted that the printing of each compound on a glass slide was performed by spotting microdroplets of approximately 2 to 4 nl on the glass slide by using an ultratrace dispensing system (Micro Diagnostic).
as §1, with “the compounds” for “the prostaglandins”, “C. It should be noted that the” for “C. The”
as §2
as §3, with “one of eight mouse monoclonal anti-compound antibodies (Table 2)” for “an anti-prostaglandin E2 antibody (Ab00484-23.0, Absolute Antibody)”
as §4

[3] = system: anti-ampicillin antibodies; assay: Compound microarray, detection of immobilized compound with anti-ampicillin antibodies; assay type: binding, mouse; conditions: compound 0.5 mM mixed with HSA 0.1 micrograms/microliter, printed on glass slide
Excerpt: as §5, with “Fourteen compounds (amoxicillin, ampicillin, apramycin, bacitracin, cefalexin, ceftazidime, cloxacillin, gentamicin, hygromycin B, neomycin, penicillin G, streptomycin, sulfadimidine, and tetracycline) were each mixed with human serum albumin (HSA) (Sigma-Aldrich) and printed on glass slides. Further,” for “Further,”
(§6) The compound microarrays printed with the compounds were immersed in ethanol and shaken for 30 seconds at room temperature. Subsequently, the compound microarrays were immersed in ultrapure water and shaken for 30 seconds at 26° C. […]
(§7) The compound microarrays were dried, centrifuged at 1500 rpm for one minute, and scanned for fluorescence intensity using a GenePix 4000B (Molecular Devices, Calif., USA). […]

[4] = system: anti-penicillin antibodies; assay: Compound microarray, detection with anti-penicillin antibodies (Examples 3 and 4, clone not stated); assay type: binding; conditions: concentrations of HSA from 0.5 mM to 0.0005 mM, glass slide
[5] = system: anti-penicillin [P2B9] antibodies; assay: Compound microarray, detection of immobilized compound with anti-penicillin [P2B9] antibodies; assay type: binding, mouse; conditions: compound mixed with HSA, printed on glass slide
Excerpt: as §5, with “Fourteen compounds (amoxicillin, ampicillin, apramycin, bacitracin, cefalexin, ceftazidime, cloxacillin, gentamicin, hygromycin B, neomycin, penicillin G, streptomycin, sulfadimidine, and tetracycline) were each mixed with human serum albumin (HSA) (Sigma-Aldrich) and printed on glass slides. Further,” for “Further,”
as §6, §7

[6] = system: anti-streptomycin antibodies; assay: Compound microarray, detection of immobilized compound with anti-streptomycin antibodies; assay type: binding, mouse; conditions: compound mixed with HSA, printed on glass slide
Excerpt: as §5, with “Fourteen compounds (amoxicillin, ampicillin, apramycin, bacitracin, cefalexin, ceftazidime, cloxacillin, gentamicin, hygromycin B, neomycin, penicillin G, streptomycin, sulfadimidine, and tetracycline) were each mixed with human serum albumin (HSA) (Sigma-Aldrich) and printed on glass slides. Further,” for “Further,”
as §6, §7

[7] = system: streptomycin/dihydrostreptomycin [CH-2013]; assay: Compound microarray, detection of immobilized compound with streptomycin/dihydrostreptomycin antibody [CH-2013]; assay type: binding, mouse; conditions: compound mixed with HSA, printed on glass slide
Excerpt: as §5, with “Fourteen compounds (amoxicillin, ampicillin, apramycin, bacitracin, cefalexin, ceftazidime, cloxacillin, gentamicin, hygromycin B, neomycin, penicillin G, streptomycin, sulfadimidine, and tetracycline) were each mixed with human serum albumin (HSA) (Sigma-Aldrich) and printed on glass slides. Further,” for “Further,”
as §6, §7

[8] = system: anti-dihydrosterptomycin [1.BB.891]; assay: Compound microarray, detection of immobilized compound with anti-dihydrostreptomycin antibody [1.BB.891]; assay type: binding, mouse; conditions: compound mixed with HSA, printed on glass slide
Excerpt: as §5, with “Fourteen compounds (amoxicillin, ampicillin, apramycin, bacitracin, cefalexin, ceftazidime, cloxacillin, gentamicin, hygromycin B, neomycin, penicillin G, streptomycin, sulfadimidine, and tetracycline) were each mixed with human serum albumin (HSA) (Sigma-Aldrich) and printed on glass slides. Further,” for “Further,”
as §6, §7

[9] = system: anti-gentamycin antibodies; assay: Compound microarray, detection of immobilized compound with anti-gentamycin antibodies; assay type: binding, mouse
Description: as §5
as §1, with “the compounds” for “the prostaglandins”, “C. It should be noted that the” for “C. The”
The compound microarrays treated as described above were immersed in Blocking One (Nacalai Tesque, Kyoto, Japan) and shaken for one hour at 26° C. […]

How did the “reaction of the anti-prostaglandin E2 antibody (fluorescence intensity)” value (“reaction” below) [1] turn out when `CCCCC[C@H](O)/C=C/[C@H]1[C@H](O)CC(=O)[C@@H]1C/C=C\CCCC(=O)O` [Prostaglandin E2] was run?
Its value is “reacted strongly”.

`CC/C=C\C[C@H](O)/C=C/[C@H]1[C@H](O)CC(=O)[C@@H]1C/C=C\CCCC(=O)O` [Prostaglandin E3] was tested. Which “reaction” value [1] did it give?
The value was “reacted strongly”.

`CCCCC[C@H](O)/C=C/[C@@H]1[C@H]2C/C(=C/CCCC(=O)O)O[C@H]2C[C@H]1O` [Prostaglandin I2] was tested. Which “reaction” value [1] did it give?
The value was “reacted strongly”.

With `CC1(C)S[C@@H]2[C@H](NC(=O)[C@H](N)c3ccc(O)cc3)C(=O)N2[C@H]1C(=O)[O-].[Na+]` [amoxicillin sodium] as the compound, how does the “concentration of HSA at which the strongest signal was detected” value [2] read?
Its value is 0.05 mM.

And the “signal intensity versus HSA concentration” value [2]?
The value was “tended to be concentration-dependent”.

`CC1(C)S[C@@H]2[C@H](NC(=O)[C@H](N)c3ccc(O)cc3)C(=O)N2[C@H]1C(=O)O` [amoxicillin] was tested. Which “signal intensity versus HSA concentration” value [2] did it give?
The value was “increased in an HSA concentration-dependence”.

How did the “signal (Red Intensity)” value [3] turn out when `CC1(C)S[C@@H]2[C@H](NC(=O)[C@H](N)c3ccccc3)C(=O)N2[C@H]1C(=O)O` [ampicillin] was run?
Its value is “strong signal (strong signals (red intensity of 2000 or greater; the same below))”.

With `CC1(C)S[C@@H]2[C@H](NC(=O)Cc3ccccc3)C(=O)N2[C@H]1C(=O)[O-].[Na+]` [penicillin G sodium] as the compound, how does the “signal intensity versus HSA concentration” value [4] read?
Its value is “increased in an HSA concentration-dependence”.

With `CC1(C)S[C@@H]2[C@H](NC(=O)Cc3ccccc3)C(=O)N2[C@H]1C(=O)O` [penicillin G] as the compound, how does the “signal (Red Intensity)” value [5] read?
Its value is “weak signal”.

With `[H]/N=C(/N)N[C@H]1[C@H](O)[C@@H](O)[C@H](O[C@@H]2O[C@@H](C)[C@](O)(C=O)[C@H]2O[C@@H]2O[C@@H](CO)[C@H](O)[C@@H](O)[C@@H]2NC)[C@@H](N/C(N)=N\[H])[C@@H]1O` [streptomycin] as the compound, how does the “signal (Red Intensity)” value [6] read?
Its value is “weak signal”.

What about the “signal (Red Intensity)” value [7] of the same compound?
Its value is “weak signal”.

And the “signal (Red Intensity)” value [8]?
The value was “weak signal”.

What does the source list for gentamycin sulfate?
signal (red intensity) ([9]; compound 0.5 mM mixed with each immobilizing protein or HSA (0.1 micrograms/microliter), strong only with this antibody): strong signal (strong signals (red intensity of 2000 or greater; the same below)); signal intensity versus HSA concentration ([9]; concentrations of HSA from 0.5 mM to 0.0005 mM, glass slide): increased in an HSA concentration-dependence
